Experimental data: patent US8993756B2 (Merck Sharp & Dohme Corp., priority 2011, dated 2015)

How the values were obtained:
[1] = molecular target: JAK2 (Homo sapiens (Human), UniProt O60674); assay: Jak Biochemical HTRF Assay (JAK2); details: recombinant GST-tagged catalytic domain, [ATP] 8.5 μM
[2] = molecular target: JAK3 (Homo sapiens (Human), UniProt P52333); assay: Jak Biochemical HTRF Assay (JAK3); details: recombinant GST-tagged catalytic domain, [ATP] 2.9 μM
JAK3, sequence (P52333 822-1111): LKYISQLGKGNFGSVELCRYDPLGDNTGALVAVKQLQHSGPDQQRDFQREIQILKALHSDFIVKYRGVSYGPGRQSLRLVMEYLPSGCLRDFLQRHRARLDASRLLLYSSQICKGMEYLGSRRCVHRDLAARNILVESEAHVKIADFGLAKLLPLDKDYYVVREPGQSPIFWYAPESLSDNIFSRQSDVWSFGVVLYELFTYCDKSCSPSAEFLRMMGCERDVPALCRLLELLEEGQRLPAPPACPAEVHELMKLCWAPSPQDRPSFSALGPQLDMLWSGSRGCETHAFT

JAK2, sequence (O60674 849-1124): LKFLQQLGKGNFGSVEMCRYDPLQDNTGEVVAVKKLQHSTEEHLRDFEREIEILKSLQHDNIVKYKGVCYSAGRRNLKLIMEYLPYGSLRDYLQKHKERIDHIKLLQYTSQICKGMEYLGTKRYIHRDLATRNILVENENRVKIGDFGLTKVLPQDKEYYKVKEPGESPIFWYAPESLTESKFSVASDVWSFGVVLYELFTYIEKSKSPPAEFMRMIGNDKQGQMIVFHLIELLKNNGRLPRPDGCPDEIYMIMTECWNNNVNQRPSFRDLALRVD

SMILES	IC50 [1] [nM]	IC50 [2] [nM]	IC50 ([1]; given as range class) [nM]	IC50 ([2]; given as range class) [nM]
C=C(C)C(=O)Nc1cccc(-c2ncnc3[nH]cc(-c4cnco4)c23)c1 [Example 30, N-(3-(5-(Oxazol-5-yl)-7H-pyrrolo[2,3-d]pyrimidin-4-yl)phenyl)methacrylamide]	> 1500	5		
C=C(C)C(=O)Nc1cccc(-c2ncnc3[nH]cc(-c4nccs4)c23)c1 [Example 31, N-(3-(5-(Thiazol-2-yl)-7H-pyrrolo[2,3-d]pyrimidin-4-yl)phenyl)methacrylamide]			> 500	10 to 500
COc1ncccc1-c1c[nH]c2ncnc(-c3ccccc3)c12 [Example 32-1, 5-(2-Methoxypyridin-3-yl)-4-phenyl-7H-pyrrolo[2,3-d]pyrimidine]			10 to 500	10 to 500
COc1cccc(-c2c[nH]c3ncnc(-c4ccccc4)c23)c1 [Example 32-3, 5-(3-methoxyphenyl)-4-phenyl-7H-pyrrolo[2,3-d]pyrimidine]	93	3.1		
c1ccc(Oc2cccc(-c3c[nH]c4ncnc(-c5ccccc5)c34)c2)cc1 [Example 32-4, 5-(3-phenoxyphenyl)-4-phenyl-7H-pyrrolo[2,3-d]pyrimidine]			> 500	10 to 500
c1ccc(COc2cccc(-c3c[nH]c4ncnc(-c5ccccc5)c34)c2)cc1 [Example 32-5, 5-[3-(benzyloxy)phenyl]-4-phenyl-7H-pyrrolo[2,3-d]pyrimidine]			> 500	10 to 500
c1ccc(Oc2ccccc2-c2c[nH]c3ncnc(-c4ccccc4)c23)cc1 [Example 32-6, 5-(2-phenoxyphenyl)-4-phenyl-7H-pyrrolo[2,3-d]pyrimidine]			> 500	10 to 500
COc1ccccc1-c1c[nH]c2ncnc(-c3ccccc3)c12 [Example 33-1, 5-(2-Methoxyphenyl)-4-phenyl-7H-pyrrolo[2,3-d]pyrimidine]	183	3.4		
COc1ccccc1-c1c[nH]c2ncnc(-c3ccc4cn(C)nc4c3)c12 [Example 33-2, 5-(2-methoxyphenyl)-4-(2-methyl-2H-indazol-6-yl)-7H-pyrrolo[2,3-d]pyrimidine]	> 1500	6.9		
COc1ccc(F)cc1-c1c[nH]c2ncnc(-c3ccccc3)c12 [Example 33-3, 5-(5-fluoro-2-methoxyphenyl)-4-phenyl-7H-pyrrolo[2,3-d]pyrimidine]	71	1.4		
COc1cccc(-c2ncnc3[nH]cc(-c4ccccc4OC)c23)c1 [Example 33-4, 5-(2-methoxphenyl)-4-(3-methoxyphenyl)-7H-pyrrolo[2,3-d]pyrimidine]			10 to 500	10 to 500
COc1ccccc1-c1c[nH]c2ncnc(-c3cccc(C(=O)N(C)C)c3)c12 [Example 33-5, 3-[5-(2-methoxyphenyl)-7H-pyrrolo[2,3-d]pyrimidin-4-yl]-N,N-dimethylbenzamide]			> 500	10 to 500
COc1ccccc1-c1c[nH]c2ncnc(-c3cn[nH]c3)c12 [Example 33-6, 5-(2-methoxyphenyl)-4-(1H-pyrazol-4-yl)-7H-pyrrolo[2,3-d]pyrimidine]			10 to 500	10 to 500
